Active and inactive are the calls of the source.
Tests used:
cells [1] = format: functional, cell-based
Protein skinhead-1 = molecular target: T1, Protein skinhead-1 (Caenorhabditis elegans, UniProt P34707); format: functional
T1 sequence (P34707 whole entry): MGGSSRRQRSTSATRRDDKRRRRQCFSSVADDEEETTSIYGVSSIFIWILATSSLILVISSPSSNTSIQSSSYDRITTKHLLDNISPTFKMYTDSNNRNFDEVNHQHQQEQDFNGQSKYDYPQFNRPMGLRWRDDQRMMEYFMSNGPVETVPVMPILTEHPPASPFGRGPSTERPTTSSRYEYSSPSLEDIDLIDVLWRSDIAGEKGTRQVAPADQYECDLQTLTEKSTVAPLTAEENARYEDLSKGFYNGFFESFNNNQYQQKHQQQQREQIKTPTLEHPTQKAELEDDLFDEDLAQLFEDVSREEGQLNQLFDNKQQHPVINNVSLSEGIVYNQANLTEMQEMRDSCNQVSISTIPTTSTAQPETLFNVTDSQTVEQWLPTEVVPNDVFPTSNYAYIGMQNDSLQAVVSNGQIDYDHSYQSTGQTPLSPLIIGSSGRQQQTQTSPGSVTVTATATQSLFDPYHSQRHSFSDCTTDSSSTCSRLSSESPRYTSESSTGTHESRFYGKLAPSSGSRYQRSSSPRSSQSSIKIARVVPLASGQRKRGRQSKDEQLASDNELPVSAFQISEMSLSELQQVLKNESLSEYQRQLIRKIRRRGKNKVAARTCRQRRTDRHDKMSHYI

cells [2] = format: functional, cell-based; remark: listed apart in the source
Streptococcus = test: Group A Streptococcus viability loss, dose response, counter-screen for streptokinase expression inhibitor project, luminescence, BacTiterGlo (AID 1915); format: functional, organism-based;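 also: potency for reduction of bacterial viability or growth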
[3] = tested on: Streptococcus sp. 'group A'; test: growth inhibition of control SK(-) GAS strain, dose response, counter-screen for streptokinase expression inhibitor project, luminescence, kanamycin, BacTiterGlo, confirmation (AID 1900); format: functional, organism-based
Streptokinase A = molecular target: T2, Streptokinase A (Streptococcus pyogenes serotype M1, UniProt P10520); test: S. pyogenes streptokinase expression inhibitors, potency, dose response, plasminogen activation absorbance, OD405 (AID 1914); format: functional, Streptococcus pyogenes M1 GAS;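 also: secreted streptokinase activity via plasminogen activation per viability signal from cell pellet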
T2 sequence (P10520 whole entry): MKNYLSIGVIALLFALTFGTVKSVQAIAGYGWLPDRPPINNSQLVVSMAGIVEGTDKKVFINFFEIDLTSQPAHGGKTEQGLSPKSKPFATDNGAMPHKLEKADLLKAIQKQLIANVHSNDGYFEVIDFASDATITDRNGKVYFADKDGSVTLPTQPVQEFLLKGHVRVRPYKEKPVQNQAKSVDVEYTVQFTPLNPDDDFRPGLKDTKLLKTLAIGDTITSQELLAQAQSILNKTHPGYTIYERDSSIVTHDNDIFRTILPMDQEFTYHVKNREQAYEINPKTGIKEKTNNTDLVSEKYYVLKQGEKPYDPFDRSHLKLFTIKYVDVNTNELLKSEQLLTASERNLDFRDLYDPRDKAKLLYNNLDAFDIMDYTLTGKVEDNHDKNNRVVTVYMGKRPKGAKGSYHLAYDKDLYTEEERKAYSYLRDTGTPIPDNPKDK

[4] = THP-1 cell cytotoxicity, dose response, cytotoxicity control for Vif-APOBEC3G degradation inhibitor project, THP-1 cells (AID 1117359); format: functional; conditions: Human immunodeficiency virus 1, THP-1
Nonstructural protein 1 = Nonstructural protein 1 (Influenza A virus, UniProt Q194T2); format: functional, Influenza A virus (A/California/07/2009(H1N1))
Chain of Nonstructural protein 1 (Q194T2 whole entry): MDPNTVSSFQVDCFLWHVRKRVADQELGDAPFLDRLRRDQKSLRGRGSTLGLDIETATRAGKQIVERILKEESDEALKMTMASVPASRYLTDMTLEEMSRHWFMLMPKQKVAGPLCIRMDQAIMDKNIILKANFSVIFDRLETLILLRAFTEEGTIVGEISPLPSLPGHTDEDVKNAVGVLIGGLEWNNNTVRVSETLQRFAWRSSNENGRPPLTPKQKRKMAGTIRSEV

[5] = control 3'UTR Renilla luciferase suppression, dose response, counter-screen for Shn3 inhibitor project, cell-based, Clone20-Shn3RL, cherry-picked (AID 624133); format: functional
[6] = molecular target: T3, Corticotropin-releasing factor receptor 2/Corticotropin-releasing factor-binding protein (Homo sapiens, UniProt P24387+Q13324); test: activators of CRF receptor 2 with binding protein – uHTS hits, confirmation (AID 602473); format: functional; conditions: read-out: EC50_Mean
T3 sequence (Q13324 whole entry): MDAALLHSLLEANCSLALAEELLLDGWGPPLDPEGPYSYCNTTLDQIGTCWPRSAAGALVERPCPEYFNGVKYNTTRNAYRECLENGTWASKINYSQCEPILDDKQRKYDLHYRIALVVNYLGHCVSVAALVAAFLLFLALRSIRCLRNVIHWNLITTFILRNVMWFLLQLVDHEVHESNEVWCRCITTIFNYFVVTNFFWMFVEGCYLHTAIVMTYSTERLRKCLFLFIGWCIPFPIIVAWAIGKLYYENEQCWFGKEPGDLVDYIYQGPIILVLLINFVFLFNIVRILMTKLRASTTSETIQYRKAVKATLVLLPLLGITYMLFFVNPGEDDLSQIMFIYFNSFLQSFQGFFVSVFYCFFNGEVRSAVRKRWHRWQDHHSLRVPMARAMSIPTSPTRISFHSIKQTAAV
T3 sequence (P24387 whole entry): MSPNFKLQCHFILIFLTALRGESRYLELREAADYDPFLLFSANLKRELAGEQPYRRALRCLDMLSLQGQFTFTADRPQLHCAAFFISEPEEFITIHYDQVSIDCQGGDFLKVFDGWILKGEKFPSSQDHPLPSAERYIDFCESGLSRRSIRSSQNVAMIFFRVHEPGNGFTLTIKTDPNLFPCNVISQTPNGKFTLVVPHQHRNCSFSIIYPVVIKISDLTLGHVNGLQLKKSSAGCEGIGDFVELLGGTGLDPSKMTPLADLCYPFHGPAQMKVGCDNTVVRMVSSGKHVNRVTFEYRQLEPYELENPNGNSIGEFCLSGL

[7] = HEp-2 cell cytotoxicity, dose response, cytotoxicity control for RSV inhibitor project, HTS (AID 2410); format: functional; conditions: human respiratory syncytial virus
Paired box protein Pax-8 = Paired box protein Pax-8 (Homo sapiens, UniProt Q06710); test: inhibitors of PAX8-driven TPO luciferase reporter, dose response, RMG-I cells, cherry-pick (AID 687027); format: functional, cell-based;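 also: luciferase reporter driven by Pax8 target thyroperoxidase promoter measured by SteadyGlo luminescence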
Chain of Paired box protein Pax-8 (Q06710 whole entry): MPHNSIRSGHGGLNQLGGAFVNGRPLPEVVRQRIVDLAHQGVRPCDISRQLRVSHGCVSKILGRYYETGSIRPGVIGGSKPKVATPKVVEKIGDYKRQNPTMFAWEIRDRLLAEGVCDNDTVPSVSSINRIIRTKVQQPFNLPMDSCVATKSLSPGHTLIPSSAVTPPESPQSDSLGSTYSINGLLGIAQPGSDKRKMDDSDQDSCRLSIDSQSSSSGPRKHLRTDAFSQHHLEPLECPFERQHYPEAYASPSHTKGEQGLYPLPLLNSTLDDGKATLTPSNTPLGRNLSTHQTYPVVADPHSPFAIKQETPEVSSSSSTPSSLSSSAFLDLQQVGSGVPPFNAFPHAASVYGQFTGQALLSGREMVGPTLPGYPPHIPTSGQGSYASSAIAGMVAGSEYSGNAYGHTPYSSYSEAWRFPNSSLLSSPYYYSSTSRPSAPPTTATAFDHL

[8] = molecular target: T4, Rac GTPase-activating protein 1 (Homo sapiens, UniProt Q9H0H5); test: MgcRacGAP GTPase-activating activity inhibitors, confirmation, biochemical, ADP Hunter fluorescence, primary and confirmatory (AID 624330); format: functional
T4 sequence (Q9H0H5 whole entry): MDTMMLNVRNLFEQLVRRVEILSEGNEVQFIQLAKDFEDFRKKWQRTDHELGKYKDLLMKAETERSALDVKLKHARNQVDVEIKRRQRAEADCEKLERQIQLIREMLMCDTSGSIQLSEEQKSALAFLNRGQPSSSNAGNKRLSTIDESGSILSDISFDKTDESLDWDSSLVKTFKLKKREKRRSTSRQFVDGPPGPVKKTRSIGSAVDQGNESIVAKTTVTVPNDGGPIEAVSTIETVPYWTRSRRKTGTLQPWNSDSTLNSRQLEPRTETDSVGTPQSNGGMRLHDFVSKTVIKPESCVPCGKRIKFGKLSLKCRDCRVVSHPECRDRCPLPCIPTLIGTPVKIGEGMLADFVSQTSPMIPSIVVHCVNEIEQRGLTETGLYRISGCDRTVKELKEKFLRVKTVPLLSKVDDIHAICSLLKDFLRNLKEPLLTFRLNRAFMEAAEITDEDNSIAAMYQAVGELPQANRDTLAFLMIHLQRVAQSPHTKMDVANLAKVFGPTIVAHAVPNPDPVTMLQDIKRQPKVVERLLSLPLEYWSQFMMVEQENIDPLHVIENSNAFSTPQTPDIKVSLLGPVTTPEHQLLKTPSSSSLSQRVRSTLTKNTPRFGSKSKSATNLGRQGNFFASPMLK

Large T antigen = Large T antigen (Simian virus 40, UniProt P03070); format: functional, Betapolyomavirus macacae;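 also: Confirmatory-stage PubChem screen for compounds that inhibit SV40 T antigen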
Chain of Large T antigen (P03070 whole entry): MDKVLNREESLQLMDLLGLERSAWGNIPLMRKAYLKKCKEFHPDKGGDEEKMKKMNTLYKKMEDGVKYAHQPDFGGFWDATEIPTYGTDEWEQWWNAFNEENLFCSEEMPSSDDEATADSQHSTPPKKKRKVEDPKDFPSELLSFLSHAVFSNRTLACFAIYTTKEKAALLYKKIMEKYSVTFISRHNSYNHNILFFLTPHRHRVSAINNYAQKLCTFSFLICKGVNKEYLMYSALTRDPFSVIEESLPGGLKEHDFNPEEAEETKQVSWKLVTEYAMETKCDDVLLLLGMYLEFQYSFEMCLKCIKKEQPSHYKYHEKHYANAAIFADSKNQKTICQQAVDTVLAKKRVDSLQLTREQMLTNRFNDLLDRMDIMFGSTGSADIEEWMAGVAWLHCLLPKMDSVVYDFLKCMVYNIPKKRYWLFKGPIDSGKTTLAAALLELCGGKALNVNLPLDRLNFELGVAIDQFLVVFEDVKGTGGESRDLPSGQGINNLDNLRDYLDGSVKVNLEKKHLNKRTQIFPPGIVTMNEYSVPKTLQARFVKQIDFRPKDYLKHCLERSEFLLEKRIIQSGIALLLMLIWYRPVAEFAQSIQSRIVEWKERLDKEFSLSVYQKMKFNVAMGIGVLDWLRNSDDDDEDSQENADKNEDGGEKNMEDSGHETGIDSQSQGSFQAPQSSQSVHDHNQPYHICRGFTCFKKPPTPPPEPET

[9] = P. falciparum Dd2 growth inhibitors, dose response, SYBR Green, cherry-picked samples (AID 1159567); format: functional, cell-based

Q: Which results are given for CCOc1ccccc1NC(=O)CSc1ncnc2c1oc1ccccc12?
A: EC50 (cells [1]): > 350 µM (not active); IC50 (Protein skinhead-1): > 100 µM (inactive); EC50 (cells [2]): > 350 µM (not active)

Q: What does the source list for CCC(Oc1ccccc1)C(=O)Nc1ccccc1N1CCCCC1 (stereo unspecified)?
A: EC50 (Streptococcus): 19.9 µM (active); EC50 [3]: 10.3 µM (active); EC50 (Streptokinase A): 15.8 µM (active)

Q: With Cc1ccc(-c2nnn(CC(=O)N(Cc3cccs3)C(C(=O)NC3CCCCC3)c3ccco3)n2)o1 (stereo unspecified) as the molecule, how does the EC50 (cells [1]) read?
A: > 350 µM (not active)

Q: What about the EC50 (cells [2]) of the same molecule?
A: > 350 µM (not active)

Q: Which CC50 [4] does the source give for CC1C/C(=C/c2ccco2)C(=O)/C(=C/c2ccco2)C1 (stereo unspecified) here?
A: > 40 µM (active)

Q: With Oc1ccccc1C=NCCN1CCN(CCN=Cc2ccccc2O)C1c1ccccc1O (stereo unspecified) as the molecule, how does the IC50 (Nonstructural protein 1) read?
A: 1.75 µM (active)

Q: Which AC50 [5] does the source give for COc1ccc(S(=O)(=O)NCCC(=O)OCC(=O)NC2CC2)cc1 here?
A: 33.7 µM (active)

Q: Which results are given for C=CCN1C(=O)/C(=C/c2ccc(O)cc2)S/C1=N/c1nccs1?
A: EC50 [6]: > 53 µM (inactive); CC50 [7]: 22.4 µM (active)

Q: With O=C(Nc1ccc(F)cc1)N1CCCCN2[C@@H](CO)[C@@H](c3ccc(-c4cccc(F)c4)cc3)[C@@H]2C1 as the molecule, how does the AC50 (Paired box protein Pax-8) read?
A: 21.3 µM (active)

Q: What does the source list for CC1=C(C(=O)O)N2C(=O)C(NC(=O)Cc3ccccc3)C2SC1 (stereo unspecified)?
A: EC50 (Streptococcus): 2.68 µM (active); EC50 [3]: 1.22 µM (active); EC50 (Streptokinase A): > 150 µM (not active)

Q: Which IC50 [8] does the source give for N/C(=N\[N+](=O)[O-])N/N=C/c1ccc(O)cc1 here?
A: 20.4 µM (active)

Q: What about the IC50 (Large T antigen) of the same molecule?
A: > 100 µM (active)

Q: Which IC50 (Large T antigen) does the source give for CC/C(=N\NC(=O)CCC(=O)NCc1ccccc1)c1ccc(O)cc1 here?
A: 34.6 µM (active)

Q: With Cc1ccsc1C(=O)N/N=C/c1ccc([N+](=O)[O-])cc1 as the molecule, how does the EC50 (cells [1]) read?
A: > 350 µM (not active)

Q: And the EC50 (cells [2])?
A: 5.99 µM (active)

Q: With COc1ccc2c3c(n(C)c2c1)[C@@H](CO)N(Cc1ccccc1F)CC31CCN(CC2CC2)CC1 as the molecule, how does the AC50 [9] read?
A: 2.61 µM (active)

Q: With COc1ccc(-c2ccc3c(c2)[C@H]2[C@H](CCN2Cc2ccncc2)[C@@H](CO)N3)cc1 as the molecule, how does the AC50 [9] read?
A: 7.26 µM (active)

Q: With COc1ccc2c3c([nH]c2c1)[C@@H](CO)N(C(=O)C1CCCCC1)CC31CCN(Cc2nccs2)CC1 as the molecule, how does the AC50 [9] read?
A: 4.44 µM (active)

Q: With COc1ccc(C#Cc2ccc3c(c2)[C@@H]2[C@@H](CCN2C(=O)C2CC2)[C@H](CO)N3)cc1 as the molecule, how does the AC50 [9] read?
A: 5.56 µM (active)

Reference: ChEMBL document CHEMBL1201862, “PubChem BioAssay data set” (2004)
